{
  "source": "patent US20020086027A1",
  "about": "“Composition and method for enhancing immunological memory response” (priority 1998, published 2002)",
  "key": {"human T cells [1]": {"test_system": "human T cells", "test": "Primary alloproliferative response of responder PBMCs to irradiated MHC-mismatched stimulator PBMCs ([3H]thymidine incorporation)", "format": "cell-based", "description": "In this system, we have used responses to first exposure as an indication of primary responses. When cells stimulated in this fashion are rested in culture and then restimulated with the same stimulator PBMCs, the 'recall' response measured are taken as an indication of immune memory. Proliferation is measured by the incorporation of radioactive tritiated thymidine in dividing cells. PBMCs from HLA-mismatched individuals were separated using density-gradient centrifugation on Ficoll-Paque (Pharmacia, Uppsala, Sweden). Stimulator PBMCs were used in titrated doses after g-irradiation (200 rads). For the primary proliferative alloresponses, stimulator in graded doses were used with 1-3×10^5 responders per well in 200 μl of RPMI-1640 (Life Technologies, Grand Island, N.Y.) fortified with L-glutamine (Life Technologies) and antibiotics, containing 10% heat-inactivated responder autologous serum. Cultures were incubated in a CO2 atmosphere for five days, pulsed with 0.5 uCi of (H^3)-thymidine (New England Nuclear, Boston, Mass.) for the last 8-12 hours of the assay and harvested onto glass fiber filters for counting cell-incorporated thymidine (Betaplate; Wallac, Finland). results are expressed as mean cpm±SE for triplicate cultures. Dibutyryl cyclic AMP (dbcAMP), pentoxifylline (POX), aphidicolin (all from Sigma Chemical Co., St Louis, Mo.) and recombinant IL-2 (Boehringer Manheim Corp., Manheim Germany) were added singly or together to the culture in various doses as indicated during priming and in primary alloresponse assays. […] Sigma Chemical Co.) at room temperature for 20 minutes, washed extensively and used. PBMCs from MHC-mismatched donors were used as responder-stimulator pairs. Stimulator cells were used after γ-irradiation (200 rad) at various concentrations, as shown. Proliferation assays were set up as parallel cultures and were pulsed and harvested as below on different days when necessary for the analyses of the kinetics of the response. Where appropriate, cyclosporin A (CsA, Sandoz, Milan, Italy), aphidicolin (Aph, Sigma Chemical Co., and/or pentoxifylline ([…], Sigma Chemical Co.) Were added at the concentrations indicated, or PFA-fixed PBMCs were used. The plated were pulsed with 0.5 to 1 μCi of (^3H)thymidine ([^3H]TdR. Amersham, Little Chalfont, U.K.) During the last 12 to 16 h of the assay (4 days for a recall assay and 6 days for a primary assay, unless indicated otherwise). [^3H] TdR incorporation was measured by harvesting the cultures on glass-fibers and counting in a scintillation counter (Betaplate: LKB-Pharmacia. Uppsala, […]). The results are expressed as mean cpm±SE of triplicate cultures."}, "human T cells [2]": {"test_system": "human T cells", "test": "Secondary (recall) alloproliferative response of T cells primed in vitro", "format": "cell-based", "description": "In this system, we have used responses to first exposure as an indication of primary responses. When cells stimulated in this fashion are rested in culture and then restimulated with the same stimulator PBMCs, the 'recall' response measured are taken as an indication of immune memory. Proliferation is measured by the incorporation of radioactive tritiated thymidine in dividing cells. For priming, responder and stimulator cells mixed in 2-5 ml cultures in a ratio of 1:1-3:1. After five days of incubation, the cells were harvested, counted and viable cells used as primed responders with g-irradiated allostimulators in secondary alloproliferation assays, which were pulsed with (H^3)-thymidine after four days for estimating cell proliferation. For flow cytometric analysis, cells were separated from debris by Ficoll-Paque gradient centrifugation before staining. […] Sigma Chemical Co.) at room temperature for 20 minutes, washed extensively and used. For priming in vitro, responder PBMCs were incubated for 72 or 144 h at a ratio of either 1:1 or 2:1 respectively, with stimulator PBMCs. Where appropriate, CsA. Aph. and/or […] were added at the concentrations indicated, of PFA-fixed PBMCs were used instead."}, "[3]": {"test_system": "allo-specific precursor T cells", "test": "Limiting dilution analysis of clonal responder frequency and burst size", "format": "cell-based, human", "conditions": "drug present during priming (POX 100 ug/ml)", "from_the_text": "Limiting dilution analyses were used to calculate the number of transplantation antigen-specific memory T cells in cultures primed in the presence or absence of POX. Multiple replicate wells of titrated numbers of primed responders were restimulated. the numbers of wells showing proliferative responses at each responder dose were used to calculate the frequency of responding memory t cells in the primed populations. estimates of the extent of proliferation in wells effectively containing single responder cells served as a measure of clonal burst size. […] To determine the frequence of all-specific precursor cells in the various responder populations, titrating numbers (from 10,000 to 200 per well) of variously primed cells were added to a constant number (1×10^5 per well) of g-irradiated stimulator PBMCs. Of the 48 wells plated per responder dose, those wells showing a response at least twice that of the background value were scored positive. The responder frequency was calculated by taking the number of negative wells into account. The response was considered clonal at the responder cell number where the proportion of positively responding wells was less than 37%. At responder cell concentrations showing clonal frequencies, the average cpm values of responding (versus non-responding) wells were used as an estimate of the average clonal burst size of single responding T cells."}, "CD25+ CD4 T cells": {"test_system": "CD25+ CD4 T cells", "test": "Flow cytometry of CD25 and Fas (CD95) on primed cells", "format": "cell-based, human", "conditions": "aphidicolin 1 ug/ml present during two-day rest period", "description": "For analysis of cell surface markers, primed cell populations separated on Ficoll-Paque gradients were used. […] Briefly, 1-3×10^5 cells per well were stained with primary antibodies at 4° C., followed by appropriately labeled secondary reagents if required. Samples were analyzed using a Bryte flow cytometer (bio-Rad, Hemel Hampstead, UK). Antibodies to the T cell markers CD3 (OKT3), CD4 (OKT4), and to the activation markers CD25 and Fas (CD95) were used for staining. To detect apoptosis using propidium iodide (PI, Sigma Chemical Co.), antibody-stained cells were fixed and permeabilized with 70% ethanol, washed, and PI […] added just before cytometric analysis. Data were analyzed using FlowJo software (Treestar, San Jose, Calif.).\nThe phenotype of CD4 T cells activated during priming in vitro was examined next using various markers associated with T cell activation. Antibodies against CD25 (IL-2Ra), CD26, CD45RO, CD69 and gp240 were used, but except for CD25, none of the other markers gave consistent and reliable results (data not shown). CD25 expression on CD4 T cells in the responder populations was examined in a two-color flow cytometric analysis at two separate time points,—at the end of six days of priming and after two further rest days in culture after washing and resuspension in resh medium without any stimuli. Most CD25-expressing cells in the primed cultures were CD4 T cells. […] The frequency of CD25 expression increased in the PBMC-primed responders (FIG. 17B) and this percentage was lower if POX (100 μg/ml) was present during priming (FIG. 17C). […] Similar data were observed if dbcAMP was present during priming (data not shown). It can be seen that the proportion of CD25* cells was reproducibly lower if POX was present during priming with allo-PBMCs. However, after 48 hours of rest in culture, the frequency of CD25* cells declined in the populations primed in the absence of POX, while it went up in the group primed under POX cover."}},
  "data": [
    {"compound": "paraformaldehyde [PFA]", "values": [
      {"measurement": "primary alloproliferative response to PFA-fixed APCs", "setting": "human T cells [1]; 0.0003% PFA", "result": "significant lowering"},
      {"measurement": "recall response capability induced by PFA-fixed APCs", "setting": "human T cells [2]; 0.003% PFA, vs unfixed APCs", "result": "comparable with or greater than"},
      {"measurement": "recall response of cells primed with PFA-fixed APCs", "setting": "human T cells [2]; 0.3% PFA, vs unprimed cells", "result": "distinctly lower"}
    ]},
    {"compound": "CCCC(=O)Nc1ncnc2c1ncn2[C@@H]1O[C@@H]2COP(=O)(O)O[C@H]2[C@H]1OC(=O)CCC", "note": "[dbcAMP, Dibutyryl cyclic AMP]", "values": [
      {"measurement": "primary proliferative response", "setting": "human T cells [1]; 1 mM dbcAMP", "result": "inhibits"},
      {"measurement": "primary proliferative response", "setting": "human T cells [1]; 10 mM dbcAMP", "result": "No effect"},
      {"measurement": "primary proliferative response", "setting": "human T cells [1]; 100 mM dbcAMP", "result": "does inhibit"},
      {"measurement": "recall response", "setting": "human T cells [2]; priming in presence of 10 mM dbcAMP", "result": "No effect"},
      {"measurement": "secondary response", "setting": "human T cells [2]; priming in presence of 100 mM dbcAMP", "result": "significant enhancement"},
      {"measurement": "frequency of alloreactive responder (memory) T cells", "setting": "[3]", "result": "significantly enhances"}
    ]},
    {"compound": "C[C@@]1(CO)[C@H](O)CC[C@@]2(C)[C@H]1CC[C@H]1C[C@@H]3C[C@@]12CC[C@]3(O)CO", "note": "[Aph, aphidicolin]", "values": [
      {"measurement": "T cell proliferation in first response", "setting": "human T cells [1]; 1 μg/ml Aph", "result": "inhibited substantially"},
      {"measurement": "T cell proliferation in first response", "setting": "human T cells [1]; 3 μg/ml Aph", "result": "completely undetectable"},
      {"measurement": "kinetics of primary response", "setting": "human T cells [1]; days 4-10, drugs present throughout", "result": "declines equivalently"},
      {"measurement": "primary response after drug removal", "setting": "human T cells [1]; drugs removed on day 6, pulsed days 8 and 10", "result": "no increase"},
      {"measurement": "responses of unprimed PBMCs incubated with Aph", "setting": "human T cells [2]; no stimulators", "result": "unaltered"},
      {"measurement": "recall response", "setting": "human T cells [2]; primed with 1 μg/ml Aph vs primed in absence of Aph", "result": "comparable"},
      {"measurement": "recall response", "setting": "human T cells [2]; primed with 3 μg/ml Aph", "result": "significant enhancement"},
      {"measurement": "increase in frequency of CD25+ cells in responders exposed to POX during priming", "setting": "CD25+ CD4 T cells", "result": "does not abrogate"}
    ]}
  ]
}
